Source: patent publication US11440923B2, “Substituted macrocyclic indole derivatives” (Bayer Aktiengesellschaft, priority 2017, dated 2022)
Structures can show the parent of a compound that is named as a salt.

Key:
[1] = target: MCL1 protein / biotinylated BIM BH3 peptide in RKO cells (Homo sapiens (Human), UniProt Q07820); assay: PIxEL: protein-protein interaction in permeabilized cells by ELISA (Assay 5); assay type: cell-based; settings: PIxEL IC50 (median)
Procedure: PIxEL: Protein-Protein Interaction in Permeabilized Cells by ELISA
Most MCL1 protein molecules are localized at the mitochondria outer membrane and sequester pro-apoptotic proteins through binding of their BCL2 homology domain 3 (BH3 domain). MEB buffer (150 mM mannitol, 10 mM HEPES pH 7.5, 50 mM KCl, 20 μM EDTA, 20 μM EGTA, 5 mM potassium succinate, 0.1% protease-free BSA (SIGMA) with low dose digitonin (0.002%) permeabilizes plasma membrane while leaves live mitochondria, where MCL1 maintains its native localization and conformation. Unlike biophysical assays (e.g. TR-FRET) that use truncated recombinant MCL1 protein, this assay uses full length endogenous MCL1 protein at mitochondria outer membrane. It measures the interaction between MCL1 protein and biotinylated BIM BH3 peptide. Compounds can compete with BIM BH3 peptide to bind to MCL1 protein.
On day 1, RKO colon cancer cell line cells were plated at 0.8 million cells/ml, 100 μl/well in 96-well flat bottom TC plates (Corning). MCL1 antibody (Santa Cruz sc-12756) were diluted at 200 fold (final concentration 1 μg/ml) in carbonate buffer (Thermo Fisher Scientific, pH 9.6), and 50 μl of diluted antibody was added to each well of high bind ELISA plates ([…]). Each plate was tapped to make sure liquid covering entire bottom of wells and incubate at 37° C. overnight.
On the second day, MCL1 antibody was washed from ELISA plate. 250 μl Odyssey® Blocking Buffer (PBS) (Li-Cor) was added to each well, incubated at room temperature for at least 1 hour, then washed once with 250 μl 1×PBST. Plates with RKO cells were gently washed once with 100 μl/well PBS, once with 100 μl/well MEB buffer without digitonin, then 100 μl of MEB buffer with 0.002% digitonin was gently added to each well. Compounds were added with HP Tecan compound dispenser in 3-fold dilution series, highest dose 30 μM, 10-dose per compound in quadruplicates. Biotin-BIM peptide (synthesized by 21st Century) was added with HP Tecan compound dispenser at 0.2 μM immediately after the addition of compounds. Plates were rocked for 1 hour at room temperature. Then MEB buffer was aspirated and 50 μl of CHAPS buffer (50 mM Tris-Cl, pH 7.4, 150 mM NaCl, 1% CHAPS, 1 mM EDTA, 1 mM EGTA, cOmplete protease inhibitors (Roche), PhosSTOP (Roche)) was added to each well. Plates were rocked for 1 hour at 4° C., then 45 μl cell lysate from each well were transferred to ELISA plates coated with MCL1 antibody. Plates were incubated overnight in the cold room with rocking.
On the third day, ELISA plates were washed once with 250 μl 1×PBST. Streptavidin-poly-HRP (Thermo Fisher Scientific) was diluted to 20 ng/ml in Odyssey blocking buffer plus 0.05% Triton-100, and 100 μl was added to each well of the ELISA plate. Plates were incubated at room temperature for 1 hour with rocking, then washed with 100 μl 1×PBST for 3 times. Each SuperSignal ELISA Femto Maximum Sensitivity substrate was added to a 50-ml tube and mixed, then 100 μl of mixed substrate was added to each well. Plates were shaken for 1 minute then luminescence was measured by Envision plate reader […]. Signal of each well were normalized by no-compound control and no-cell control. IC50 was calculated using Graphic Pad PRISM software.

[2] = target: MCL-1 (Homo sapiens (Human), UniProt Q07820, K194A/K197A/R201A); assay: Protein-compound interaction assay (SPR assay, Assay 9); assay type: binding; settings: for Kd: KD (geometric mean), SPR, 25° C.; for koff: read-out: koff (geometric mean), SPR, 25° C.; for kon: read-out: kon (geometric mean), SPR, 25° C.
Sequence of MCL-1 (Q07820 whole entry K194A/K197A/R201A, looked up): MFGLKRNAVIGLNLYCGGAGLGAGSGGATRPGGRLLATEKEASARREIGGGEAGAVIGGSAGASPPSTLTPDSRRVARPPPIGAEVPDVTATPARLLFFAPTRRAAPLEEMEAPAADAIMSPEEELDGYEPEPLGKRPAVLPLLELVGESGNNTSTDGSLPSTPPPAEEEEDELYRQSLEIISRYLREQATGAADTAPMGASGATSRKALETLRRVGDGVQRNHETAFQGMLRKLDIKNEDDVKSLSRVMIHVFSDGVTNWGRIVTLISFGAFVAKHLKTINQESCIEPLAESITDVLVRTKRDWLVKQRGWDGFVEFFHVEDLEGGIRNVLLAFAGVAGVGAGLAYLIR
Source text: Assay 9 Protein-Compound Interaction Assay (SPR Assay)
The ability of the compounds described in this invention to bind to MCL-1 may be determined using surface plasmon resonance (SPR). This allows for the quantification of binding in terms of the equilibrium dissociation constant (KD [M]), as well as association and dissociation rate constants (kon [1/Ms] and koff [1/s], respectively). The measurements may be performed using Biacore® T200 or Biacore® S200 instruments (GE Healthcare).
Briefly, carboxymethylated dextran biosensor chips (Series S Sensor Chip CMS, GE Healthcare) were activated with 1-ethyl-3-(3-dimethylaminopropyl)-carbodiimide hydrochloride (EDC) and N-hydroxysuccinimide (NHS) according to the supplier's instructions. MBP-MCL-1 was diluted in 1×PBS-P+ (GE Healthcare) and injected on the activated chip surface. Subsequently, a solution of 1 M ethanolamine-HCl (GE Healthcare) was injected to block unreacted groups, resulting in approximately 400-2500 response units (RU) of immobilized protein. A reference surface was generated by treatment with NHS-EDC and ethanolamine-HCl. […] Compounds were injected for 60 s followed by a dissociation time of up to 1000 s.
The double-referenced sensorgrams were fit to a simple reversible Langmuir 1:1 reaction mechanism as implemented in the Biacore® T200 and S200 evaluation software (T200 evaluation software version 2.0 and S200 evaluation software version 1.0, GE Healthcare).

Sequence of MCL1 protein / biotinylated BIM BH3 peptide in RKO cells (Q07820 whole entry): as the sequence (Q07820 whole entry K194A/K197A/R201A, looked up) above, with A194K, A197K, A201R counted along it

Row | SMILES | IC50 [1] | other results
1 | CCc1c2c(nn1C)C(C(F)(F)F)OCCCCn1c(C(=O)O)c(CCCOc3cccc4ccccc34)c3ccc(Cl)c-2c31 (racemic) [Example 27, (rac)-4-Chloro-3-ethyl-2-methyl-7-{3-[(naphthalen-1-yl)oxy]propyl}-15-(trifluoromethyl)-2,10,11,12,13,15-hexahydropyrazolo[4′,3′:9,10][1,6]oxazacycloundecino[8,7,6-hi]indole-8-carboxylic Acid] | 1960 nM | 
2 | Cc1c2c(nn1C)C(C1CC1)OCCCCn1c(C(=O)O)c(CCCOc3cccc4ccccc34)c3ccc(Cl)c-2c31 (racemic) [Example 28, (rac)-4-Chloro-15-cyclopropyl-2,3-dimethyl-7-{3-[(naphthalen-1-yl)oxy]propyl}-2,10,11,12,13,15-hexahydropyrazolo[4′,3′:9,10][1,6]oxazacycloundecino[8,7,6-hi]indole-8-carboxylic Acid] | 2330 nM | 
3 | CCc1c2c(nn1C)C(C(F)(F)F)OCCCCn1c(C(=O)O)c(CCCOc3cccc4ccccc34)c3ccc(Cl)c-2c31 (single isomer, unassigned; enantiomer 1) [Example 33, (+)-4-chloro-3-ethyl-2-methyl-7-{3-[(naphthalen-1-yl)oxy]propyl}-15-(trifluoromethyl)-2,10,11,12,13,15-hexahydropyrazolo[4′,3′:9,10][1,6]oxazacycloundecino[8,7,6-hi]indole-8-carboxylic Acid—N-ethylethanamine Salt (Enantiomer 1)] | 1510 nM | 
4 | Cc1c2c(nn1C)C(C1CC1)OCCCCn1c(C(=O)O)c(CCCOc3cccc4ccccc34)c3ccc(Cl)c-2c31 (single isomer, unassigned; enantiomer 1) [Example 35, (+)-4-chloro-15-cyclopropyl-2,3-dimethyl-7-{3-[(naphthalen-1-yl)oxy]propyl}-2,10,11,12,13,15-hexahydropyrazolo[4′,3′:9,10][1,6]oxazacycloundecino[8,7,6-hi]indole-8-carboxylic Acid N-ethylethanamine Salt (Enantiomer 1)] | 1640 nM | 
5 | CCc1c2c(nn1C)C(CCC1CCOCC1)OCCCCn1c(C(=O)O)c(CCCOc3cccc4cc(F)ccc34)c3ccc(Cl)c-2c31 (single isomer, unassigned; enantiomer 1) [Example 61, 4-chloro-3-ethyl-7-{3-[(6-fluoronaphthalen-1-yl)oxy]propyl}-2-methyl-15-[2-(oxan-4-yl)ethyl]-2,10,11,12,13,15-hexahydropyrazolo[4′,3′:9,10][1,6]oxazacycloundecino[8,7,6-hi]indole-8-carboxylic Acid (Enantiomer 1)] |  | Kd [2]: 1.3 nM; koff [2]: 0.0021 s⁻¹; kon [2]: 1.6e+06 M⁻¹ s⁻¹
6 | Cc1c2c(nn1C)C(CCN1CCOCC1)OCCCCn1c(C(=O)O)c(CCCOc3cccc4cc(F)ccc34)c3ccc(Cl)c-2c31 (single isomer, unassigned; enantiomer 2) [Example 18, 4-chloro-7-{3-[(6-fluoronaphthalen-1-yl)oxy]propyl}-2,3-dimethyl-15-[2-(morpholin-4-yl)ethyl]-2,10,11,12,13,15-hexahydropyrazolo[4′,3′:9,10][1,6]oxazacycloundecino[8,7,6-hi]indole-8-carboxylic Acid (Enantiomer 2)] | 2430 nM | 
7 | Cc1c2c(nn1C)C(C)OCCCCn1c(C(=O)O)c(CCCOc3cccc4ccccc34)c3cccc-2c31 (single isomer, unassigned; stereoisomer 1) [Example 2, 2,3,15-trimethyl-7-[3-(naphthalen-1-yloxy)propyl]-2,10,11,12,13,15-hexahydropyrazolo[4′,3′:9,10][1,6]oxazacycloundecino[8,7,6-hi]indole-8-carboxylic Acid Trifluoroacetic Acid Salt (Stereoisomer 1)] |  | Kd [2]: 11 nM; koff [2]: 0.067 s⁻¹; kon [2]: 5.9e+06 M⁻¹ s⁻¹

Second part, led by results:

Row | IC50 [1] | SMILES | other results
8 | 1250 nM | Cc1c2c(nn1C)C(CCO)OCCCCn1c(C(=O)O)c(CCCOc3cccc4ccccc34)c3ccc(Cl)c-2c31 (racemic) [Example 26, (rac)-4-chloro-15-(2-hydroxyethyl)-2,3-dimethyl-7-{3-[(naphthalen-1-yl)oxy]propyl}-2,10,11,12,13,15-hexahydropyrazolo[4′,3′:9,10][1,6]oxazacycloundecino[8,7,6-hi]indole-8-carboxylic Acid] | 
9 | 190 nM | CCc1c2c(nn1C)C(c1ccccc1)OCCCCn1c(C(=O)O)c(CCCOc3cccc4cc(F)ccc34)c3ccc(Cl)c-2c31 (racemic) [Example 59, (rac)-4-chloro-3-ethyl-7-{3-[(6-fluoronaphthalen-1-yl)oxy]propyl}-2-methyl-(15-rac)-phenyl-2,10,11,12,13,15-hexahydropyrazolo[4′,3′:9,10][1,6]oxazacycloundecino[8,7,6-hi]indole-8-carboxylic Acid] | 
10 | 59.9 nM | CCc1c2c(nn1C)C1CCCCN1CCCCn1c(C(=O)O)c(CCCOc3cccc4ccccc34)c3ccc(Cl)c-2c31 (racemic) [Example 102, (rac)-18-chloro-1-ethyl-2-methyl-15-[3-(1-naphthyloxy)propyl]-2,3b,4,5,6,7,9,10,11,12-decahydropyrazolo[3′,4′:8,9]pyrido[1′,2′:6,7][1,6]diazacycloundecino[10,11,1-hi]indole-14-carboxylic Acid] | 
11 | 63 nM | CCc1c2c(nn1C)C1CCCN1CCCCn1c(C(=O)O)c(CCCOc3cccc4cc(F)ccc34)c3ccc(Cl)c-2c31 (single isomer, unassigned; (+)) [Example 105, (+)-17-chloro-1-ethyl-14-{3-[(6-fluoronaphthalen-1-yl)oxy]propyl}-2-methyl-3b,4,5,6,8,9,10,11-octahydro-2H-pyrazolo[3′,4′:8,9]pyrrolo[1′,2′:6,7][1,6]diazacycloundecino[10,11,1-hi]indole-13-carboxylic Acid] | 
12 | 317 nM | CCc1c2c(nn1C)C(C1CC1)OCCCCn1c(C(=O)O)c(CCCOc3cccc4cc(F)ccc34)c3ccc(Cl)c-2c31 (single isomer, unassigned; enantiomer 1) [Example 39, (+)-4-chloro-15-cyclopropyl-3-ethyl-7-{3-[(6-fluoronaphthalen-1-yl)oxy]propyl}-2-methyl-2,10,11,12,13,15-hexahydropyrazolo[4′,3′:9,10][1,6]oxazacycloundecino[8,7,6-hi]indole-8-carboxylic Acid—N-ethylethanamine Salt (Enantiomer 1)] | 
13 | 135 nM | CCc1c2c(nn1C)C(CC(C)(C)O)OCCCCn1c(C(=O)O)c(CCCOc3cccc4cc(F)ccc34)c3ccc(Cl)c-2c31 (single isomer, unassigned; enantiomer 1) [Example 53, (+)-4-chloro-3-ethyl-7-{3-[(6-fluoronaphthalen-1-yl)oxy]propyl}-15-(2-hydroxy-2-methylpropyl)-2-methyl-2,10,11,12,13,15-hexahydropyrazolo[4′,3′:9,10][1,6]oxazacycloundecino[8,7,6-hi]indole-8-carboxylic Acid—N-ethylethanamine Salt (Enantiomer 1)] | 
